Non-standard residues stand in square brackets, D forms with d. Residues, ends and D or L forms follow the SMILES beside them.
Columns and labels:
PC12 cells = test: Cell-viability assay (MTT); assay type: cell-based, rat; settings: 0.2, 1 and 5 µM, 24 h, 37 °C
Protocol: Human […] SH-SY5Y cells and rat pheochromocytoma PC12 cells were cultivated in RPMI medium with 10% fetal bovine serum and 5% horse serum. On a collagen-coated 96-well plate (Gibco, Life Technology, Carlsbad, CA, USA), 10.000 cells were seeded per well. The plate was incubated for 24 h at 37 °C and 5% CO2. TF2D-5 and TF2D-5a were added to the cells at concentrations of 0.2 µM, 1 µM, and 5 µM, respectively. As a positive control, 0.1% Trion X-100 was used. A medium was used as a negative control. The samples were incubated for a further 24 h at 37 °C and 5% CO2. Cell viability was determined by using the Cell Proliferation Kit 1 (MTT) (Roche, Basel, Switzerland) according to the instruction manual. The absorbance of generated formazan products was measured using a CLARIOstar plate reader (BMG, Offenburg, Germany). Absorption at 570 nm was measured and referenced against absorbance at 660 nm.
Figure S3. Peptide toxicity assay for different concentrations of TF2D -5 and TF2D-5a.
For this assay the compounds TF2D -5 and TF2D-5a were incubated on SHSY5Y and PC12 cells for 24 h at 37 °C and 5 % CO2. The “Cell Proliferation Kit 1” from Roche was used for the MTT assay. RPMI with 10 % HS and 5 % FBS was used as cell medium. As […] 0.1 % Triton X100 was used. For both assays no negative effect on the cell viability could be observed by addition of both compounds. […]

full-length tau 441 = target: T1, full-length tau 441 (Homo sapiens, UniProt P10636); test: Thioflavin-T assay of heparin-induced tau aggregation; assay type: biochemical
T1 construct: The gene for the human full-length tau was prepared on a plasmid called pET28a(+)-tau2N4R; made in house; host or cells: E. coli pRare
T1 sequence (P10636 1-441 isoform P10636-8): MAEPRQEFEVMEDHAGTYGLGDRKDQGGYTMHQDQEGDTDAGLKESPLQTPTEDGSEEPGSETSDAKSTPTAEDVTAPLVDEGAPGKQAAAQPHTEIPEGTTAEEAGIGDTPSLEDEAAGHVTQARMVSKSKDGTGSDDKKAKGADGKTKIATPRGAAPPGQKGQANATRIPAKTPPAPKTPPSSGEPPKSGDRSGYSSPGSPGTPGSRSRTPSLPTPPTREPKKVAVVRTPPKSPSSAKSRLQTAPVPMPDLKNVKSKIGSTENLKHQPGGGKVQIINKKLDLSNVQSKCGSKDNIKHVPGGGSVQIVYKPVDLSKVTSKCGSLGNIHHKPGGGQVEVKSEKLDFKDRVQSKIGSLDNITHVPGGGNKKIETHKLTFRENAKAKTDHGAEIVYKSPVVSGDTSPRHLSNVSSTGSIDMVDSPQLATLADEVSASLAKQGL
Protocol: Figure 5 Tau aggregation-influencing effect of TF2D-5 and TF2D-5a. The ThT assay was performed in a FLUOstar plate reader from BMG Labtech. Twenty-five micrometers recombinant full-length tau 441 was mixed with 12.5 µM heparin, 200 µM DTT, 0.05% NaN3, and […]. Compounds were added with a concentration of 25 µM. The total volume was adjusted to 100 µL with PBS pH 7.4, and the plate was measured with bottom optics. The experiment ran at 37 °C with measurement intervals of 20 min. Before each measurement, the plate was shaken for 15 s at 300 rpm. A 3 mm borosilicate bead was added to each well. (A) The effect of TF2D-5 when added at different time points during the ThT assay. When added at the start of the experiment no aggregation can be observed for the duration of the experiment (green). […] (B) The addition of TF2D-5a to the sample inhibits tau aggregation during the complete experiment which equals a lag time increase of at least 400% (blue). […] CP1 was obtained by randomizing the amino acid residue composition of TF2D-5.
To investigate whether TF2D-5 and TF2D-5a induce an extension of the lag time of tau aggregation, we performed a ThT experiment with sub-stoichiometric D-peptide concentrations. For this, we used tau that was produced according to the protocol in the Section 4. Twenty-five micrometers of full-length tau was incubated with 6.25 µM, 12.5 µM 25 µM, 50 µM, and 100 µM of D-peptides. As expected, we observed an increase in the lag time of the full-length tau aggregation with the increasing D-peptide concentrations. […] The addition of 6.25 µM of TF2D-5a shifted the lag time by about 60 h (a 200% increase).
ThT assays to characterize the aggregation inhibition properties of the selected compounds were conducted as follows. All measurements were performed in a FLUOstar plate reader (BMG, Offenburg, Germany). Recombinant full-length tau 441 (25 µM) was mixed with heparin (12.5 µM), DTT (200 µM), NaN3 (0.05%), and ThT (20 µM). […] The compounds were added with a maximum concentration of 25 µM. The total volume was adjusted to 100 µL with PBS pH 7.4, and the plate (Corning, New York, NY, USA) was measured with bottom optics. A 3 mm borosilicate bead (Hilgenberg GmbH, Malsfeld, Germany) was added to each well. The experiment ran at 37 °C, with measurement intervals of 20 min. Before each measurement, the plate was shaken for 15 s at 300 rpm.

[1] = Stability in human blood plasma; assay type: in vitro ADME; settings: K3EDTA human blood plasma, after 48 h; read-out: still detectable in human blood plasma
Protocol: (§1) Figure 12 Stability assay of TF2D-5 and TF2D-5a using different simulated human body fluids. (A) Stability of compounds in simulated gastric fluid (SGF). The simulated gastric fluid consisted of 2 mg/mL sodium chloride, 3.2 mg/mL pepsin, and 80 mM HCl; pH 1. (B) Stability of TF2D-5 and TF2D-5a in simulated intestinal fluid (SIF). Simulated intestinal fluid consisted of 6.8 mg/mL potassium dihydrogen phosphate, 10 mg/mL pancreas powder, and 15.4 mM NaOH; pH 6.8. (C) Stability of TF2D-5 and TF2D-5a in human blood plasma. K3EDTA human blood plasma was purchased from BioTrend. (D) Stability of TF2D-5 and TF2D-5a in human liver microsomes. Human liver microsomes consisted of 6 mg/mL protein (containing Cytochrome P450 (CYP) enzymes), 75 mM sucrose, 1.3 mM NADPH, 3.3 mM D-glucose-6-phosphat, 0.2 u/mL D-glucose-6-phosphat dehydrogenase, 3.3 mM magnesium chloride, and 100 mM potassium phosphate; pH 7.4.
(§2) The stability of the compounds was tested according to Elfgen et al. and Schemmert et al. Exceptions included the extraction of plasma, simulated gastric fluid (SGF), and simulated intestinal fluid (SIF) samples. These were obtained by the addition of 12.5 µL 0.35 M ZnSO4, followed by vortexing, the addition of 12.5 µL 0.5 M HCl, additional vortexing, and centrifugation at 14,000× g for 10 min at 4 °C.

[2] = Stability in simulated intestinal fluid; assay type: in vitro ADME
Protocol: as §1, §2

[3] = test system: brain endothelial cells (RBMVEC) and astroglial cells (CTX TNA2)
Protocol: Each peptide was tested at different time points in triplicate next to an unseeded negative control (“Empty”) and quantitatively analyzed via HPLC using a calibration curve to determine the concentration of the peptide in the receiving chamber at each point in time (Figure 11). From these values, the volume of each chamber, and the respective time, a Papp permeability coefficient in cm²/s was calculated for each substance to represent its ability to cross the in vitro blood–brain barrier model.
An amount equaling 1 mg/mL TF2D-5 (A) or TF2D-5a (B) was added to an insert that was seeded and covered with endothelial and astroglial cells, representing the in vitro blood–brain barrier, or an empty insert serving as a control. After different time points, samples were taken and analyzed by quantitative HPLC analysis. Data given as mean ± SD out of three independent replicates.
Brain endothelial cells from rats and astroglial cells were used to cultivate the different sides of the porous membrane.
Brain endothelial cells from rats (RBMVEC, Cell Applications Inc., R840-05a, San Diego, CA, USA) were cultivated in Complete Classic medium (Cell Systems, Kirkland, WA, USA, 4Z0-500), and rat astroglial cells (CTX TNA2, ATCC, CRL-2006) were cultivated in Complete Classic medium (Cell Systems, Kirkland, WA, USA, 4Z0-500). The cells were allowed to grow in a humidified incubator with 5% CO2 at 37 °C and a maximum of 20 passages. The cells were passaged every 3 to 5 days, according to their confluence.
In order to set up the in vitro BBB model, the astroglial cells were seeded at a density of 600.000 cells/cm² on the outer (basolateral, “brain”) side of an insert with a porous membrane (Corning Transwell polycarbonate membrane cell culture inserts, CLS3415, 3 µM pore size) and allowed to grow/adhere overnight in the Complete Classic medium. The next day, brain endothelial cells were seeded at a density of 600.000 cells/cm² on the inner side (apical, “blood”) of the corresponding membrane. The seeded inserts were then cultivated to grow to full confluence over a period of 5 to 7 days, with the medium renewed daily. […] Prior to this, TEER (transendothelial electrical resistance values) were measured in each well to ensure the integrity of the in vitro BBB. At 0, 30, 60, 90, 120, 150, 180, and 240 min, 50 µL of the medium out of the outer chamber was taken and analyzed by HPLC. This 50 µL would then be replaced by the same amount of fresh serum-free medium to keep the fluid levels equal across both chambers. This slight dilution was factored into the following calculations. Furthermore, a dilution series of each reagent was analyzed alongside the samples as a calibration to quantify the analysis. […] The Papp values were calculated as follows (higher is better): Papp =(V/A∗C)∗(Dc/Dt)

[4] = Stability in human liver microsomes; assay type: in vitro ADME; settings: 6 mg/mL protein, 1.3 mM NADPH with regenerating system, pH 7.4, after 24 h, read-out: still unmetabolized in human liver microsomes
Protocol: as §1, §2

[5] = 6.25 µM D-peptide, 25 µM full-length tau

## CC[C@@H](C)[C@@H](NC(=O)[C@@H](Cc1c[nH]cn1)NC(=O)CNC(=O)CNC(=O)[C@H]1CCCN1C(=O)[C@H](NC(=O)[C@@H](CCCCN)NC(=O)[C@@H](Cc1ccccc1)NC(=O)[C@@H](CC(C)C)NC(=O)[C@H](NC(=O)[C@@H](CCC(N)=O)NC(=O)[C@@H](Cc1ccc(O)cc1)NC(=O)CNC(=O)CNC(=O)[C@H](N)CC(=O)O)[C@H](C)CC)[C@H](C)CC)C(=O)N[C@H](Cc1c[nH]cn1)C(N)=O [TF2D-5] (H-[dD]GG[dY][dQ][dI][dL][dF][dK][dI][dP]GG[dH][dI][dH]-NH2)
PC12 cells
  toxicity (cell viability, MTT): not toxic
full-length tau 441; [5]
  lag time increase: 100%
full-length tau 441; 12.5 µM D-peptide, 25 µM full-length tau
  lag time increase: 200%
[1]
  remaining at 48 h: 97.4%
[2]; SIF: 6.8 mg/mL KH2PO4, 10 mg/mL pancreas powder, 15.4 mM NaOH, pH 6.8
  stability in simulated intestinal fluid: stable in simulated intestinal fluid
[3]
  Papp permeability coefficient: 3.6 ×10⁻⁶ cm/s
[4]
  remaining at 24 h: 3.7%

## CC[C@@H](C)[C@@H](NC(=O)[C@@H](Cc1c[nH]cn1)NC(=O)CNC(=O)CNC(=O)[C@H]1CCCN1C(=O)[C@H](NC(=O)[C@@H](CCCCN)NC(=O)[C@@H](Cc1ccccc1)NC(=O)[C@@H](CC(C)C)NC(=O)[C@H](NC(=O)[C@@H](CCC(N)=O)NC(=O)[C@@H](Cc1ccc(O)cc1)NC(=O)CNC(=O)CNC(=O)[C@H](N)CC(=O)O)[C@H](C)CC)[C@H](C)CC)C(=O)N[C@H](Cc1c[nH]cn1)C(=O)N[C@H](CCCNC(=N)N)C(=O)N[C@H](CCCNC(=N)N)C(=O)N[C@H](CCCNC(=N)N)C(=O)N[C@H](CCCNC(=N)N)C(=O)N[C@H](CCCNC(=N)N)C(N)=O [TF2D-5a] (H-[dD]GG[dY][dQ][dI][dL][dF][dK][dI][dP]GG[dH][dI][dH][dR][dR][dR][dR][dR]-NH2)
PC12 cells
  toxicity (cell viability, MTT): not toxic
full-length tau 441; [5]
  lag time increase: 200%
full-length tau 441; 25 µM compound, 25 µM tau 441, added at start
  lag time increase: at least 400%
[1]
  remaining at 48 h: 86.5%
[2]; simulated intestinal fluid with pancreas powder, SIF pH 6.8, 10 mg/mL pancreas powder, after about 8 h, read-out: decrease of level in simulated intestinal fluid
  metabolised at 8 h: 27.8%
[3]
  Papp permeability coefficient: 48 ×10⁻⁶ cm/s
[4]
  remaining at 24 h: 13.2%
